Measured values: patent US6509343B1 (priority 1996, dated 2003)

Key:
Type in all cases: in vivo
[1] = test system: Fusarium nivale; assay: Fusarium nivale test (triticale)/seed treatment; conditions: about 3 weeks after sowing
Description: The active compounds are applied as a dry seed dressing. This is prepared by extending the respective active compound with ground mineral to give a finely pulverulent mixture which ensures uniform distribution on the seed surface.
To dress the seed, the infected seed together with the seed dressing is shaken for 3 minutes in a sealed glass flask.
2×100 corns of triticale are sown at a depth of 1 cm in standard soil and cultivated in a greenhouse at a temperature of about 10° C. and a relative atmospheric humidity of about 95% in seed trays which receive a light regimen of 15 hours per day.
About 3 weeks after sowing, the plants are evaluated for symptoms of snow mould. 0% means an efficacy which corresponds to that of the untreated control, while an efficacy of 100% means that no disease is observed.

[2] = test system: Phytophthora infestans; assay: whole plant or invertebrate
[3] = test system: Pyrenophora teres; assay: Pyrenophora teres test (barley)/curative; conditions: 6.25 g/ha, curative, 7 days after inoculation
Description: Solvent: 25 parts by weight of N,N-dimethylacetamide
Emulsifier: 0.6 part by weight of alkylaryl polyglycol ether
To produce a suitable preparation of active compound, 1 part by weight of active compound or active compound combination is mixed with the stated amounts of solvent and emulsifier, and the concentrate is diluted with water to the desired concentration.
To test for curative activity, young plants are sprayed with a conidia suspension of Pyrenophora teres. The plants remain in an incubation cabin at 20° C. and 100% relative atmospheric humidity for 48 hours. The plants are subsequently sprayed with the preparation of active compound at the stated application rate.
The plants are placed in a greenhouse at a temperature of about 20° C. and a relative atmospheric humidity of about 80%.
Evaluation is carried out 7 days after the inoculation. 0% means an efficacy which corresponds to that of the control, whereas an efficacy of 100% means that no infection is observed.

[4] = Phytophthora infestans, in Solanum lycopersicum, 72 h, read-out: % efficacy

O=C(Nc1ccccc1)N(Cc1ccc(Cl)cc1)C1CCCC1 [(Pencycuron) P, pencycuron]
Efficacy in % ([1]; 25 mg/kg of seed): 29%

N#Cc1c[nH]cc1-c1cccc(Cl)c1Cl [(Fenpiclonil) z, fenpiclonil]
Efficacy in % ([1]; 75 mg/kg of seed): 67%

COc1ccc(/C(=C\C(=O)N2CCOCC2)c2ccc(Cl)cc2)cc1OC [Dimetomorph (L), dimetomorph]
Emax at 1 g/ha [2, 4]: 0%

CCC1(C(=O)NC(C)c2ccc(Cl)cc2)C(C)C1(Cl)Cl [(ω), N-(R)-[1-(4-chloro-phenyl)-ethyl]-2,2-dichloro-1ethyl-3t-methyl-1r-cyclopropane-carboxamide]
Emax at 5 g/ha [2, 4]: 3%

CCNC(=O)NC(=O)/C(C#N)=N/OC [Cymoxanil (M), cymoxanil]
% efficacy ([2]; in vivo): 12%

CON=C(C1=NOCCO1)c1ccccc1Oc1ncnc(Oc2ccccc2Cl)c1F [(I)]
Efficacy in % [3]: 0%

CC(C)(C)C(O)C(Oc1ccc(Cl)cc1)n1cncn1 (stereo not shown) [(F), triadimenol]
Efficacy in % [3]: 0%
